Reference: paper PMC8997913, “Lichen Secondary Metabolites Inhibit the Wnt/β-Catenin Pathway in Glioblastoma Cells and Improve the Anticancer Effects of Temozolomide” (Cells, 2022)

Tests used:
[1] = tested on: Wnt/β-catenin pathway target genes in A-172 cells; assay: qPCR of β-catenin and Wnt target genes, A-172; format: cell-based, human; details: A-172, 48 h
Experimental: Based on the MTT test, the lichen secondary metabolite concentrations allowing the survival of more than 70% of cells were chosen for the subsequent experiments. The compounds were added as follows: A-172 cells—atranorin 25 µM, caperatic acid 50 µM, physodic acid 25 µM, squamatic acid 25 µM, salazinic acid 50 µM, and lecanoric acid 100 µM; T98G cells—atranorin 50 µM, caperatic acid 100 µM, physodic acid 25 µM, squamatic acid 50 µM, salazinic acid 100 µM, and lecanoric acid 100 µM; U-138 MG cells—atranorin 25 µM, caperatic acid 50 µM, physodic acid 25 µM, squamatic acid 50 µM, salazinic acid 50 µM, and lecanoric acid 100 µM. As far as the TMZ treatment is concerned, it was added in the concentrations depending on the MGMT expression and methylation status, i.e., TMZ 30 µM was added to the A-172 cell line, and TMZ 100 µM was added to both the T98G and U-138 MG cell lines. In the case of the 2D culture, the cells were treated with the compounds 24 h after seeding, whereas, in regard to 3D culture, 5 days were needed to form spheroids. All subsequent analyses were performed 48 h after treatment.
The Universal RNA Purification Kit (EURx, Gdańsk, Poland) was used for total RNA isolation from the A-172, T98G, and U-138 MG cells, and the Revert-Aid First Strand cDNA Synthesis kit (Fermentas, Burlington, ON, Canada) was chosen for cDNA synthesis. Quantitative real-time PCR (qPCR) was performed using Hot FIREPol EvaGreen qPCR Mix Plus (Solis Biodyne, Tartu, Estonia) and LightCycler 96 (Roche Diagnostics GmbH, Mannheim, Germany). Primer sequences were previously published and their synthesis was performed at the Institute of Biochemistry and Biophysics, Warsaw, Poland. The protocol started with 15 min enzyme activation at 95 °C, followed by 40 cycles of 95 °C for 15 s; appropriate annealing temperature for 20 s; 72 °C for 40 s and the final elongation at 72 °C for 5 min. Melting curve analysis was used to confirm the generation of a single amplification product. TATA box-binding protein (TBP), a component of the DNA-binding protein complex TFIID, served as the endogenous RNA control. The results were expressed as N-fold differences in the gene expression relative to the TBP gene. The ΔΔCt method was used for fold-change calculation. All samples were analyzed in triplicate, and the reaction was repeated at least twice.

[2] = tested on: MDA-MB-231 breast cancer cells; parameters: method as in PMID 32096436; details: MDA-MB-231, ref [31]; read-out: IC50 concentration; cited from earlier work
[3] = tested on: MCF-7 breast cancer cells; parameters: method as in PMID 32096436; details: MCF-7, ref [31]; read-out: IC50 concentration; cited from earlier work
HCT-116 cells [4] = tested on: HCT-116 cells; parameters: method as in PMID 35190352; details: 30 µg/mL, ref [30]; cited from earlier work
HCT-116 cells [5] = tested on: HCT-116 cells; parameters: method as in PMID 35190352; details: HCT-116, ref [30]; cited from earlier work
HCT-116 cells [6] = tested on: HCT-116 cells; parameters: method as in PMID 35190352; details: atranorin at 30 µg/mL, ref [30]; cited from earlier work
NIH3T3 cells = tested on: NIH3T3 cells; parameters: method as in PMID 35190352; details: NIH3T3, ref [30]; cited from earlier work
HeLa cells = tested on: HeLa cells; parameters: method as in PMID 35190352; details: ref [30]; cited from earlier work
A-172 cells = details: taken from the literature, ref [5]; read-out: IC50 [uM] ± SEM A-172; cited from earlier work
T98G cells [7] = details: taken from the literature, ref [5]; read-out: IC50 [uM] ± SEM T98G; cited from earlier work
T98G cells [8] = assay: ROS (superoxide) generation, flow cytometry, T98G; format: cell-based, human; details: 48 h
Experimental: Based on the MTT test, the lichen secondary metabolite concentrations allowing the survival of more than 70% of cells were chosen for the subsequent experiments. The compounds were added as follows: A-172 cells—atranorin 25 µM, caperatic acid 50 µM, physodic acid 25 µM, squamatic acid 25 µM, salazinic acid 50 µM, and lecanoric acid 100 µM; T98G cells—atranorin 50 µM, caperatic acid 100 µM, physodic acid 25 µM, squamatic acid 50 µM, salazinic acid 100 µM, and lecanoric acid 100 µM; U-138 MG cells—atranorin 25 µM, caperatic acid 50 µM, physodic acid 25 µM, squamatic acid 50 µM, salazinic acid 50 µM, and lecanoric acid 100 µM. […]
The intracellular detection of superoxide radicals was detected by flow cytometric analysis after the staining with dihydroethidium, using The Muse® Oxidative Stress Kit (Merck, Darmstadt, Germany). Briefly, 100,000 cells per well were seeded on 6-well plates and after a 24 h incubation they were treated with the analyzed lichen secondary metabolites in the concentrations allowing >70% of cell survival; cells treated with DMSO were used as the negative control. […] The obtained data were evaluated using Muse® Analysis Software ver. […]

[9] = mRNA vs DMSO control, single agent, (TMZ 30 µM)
[10] = mRNA vs DMSO control, single agent

COC(=O)c1c(C)cc(OC(=O)c2c(C)cc(O)c(C=O)c2O)c(C)c1O [Atranorin]
Axin2 expression [1, 9]: downregulated
IC50 [2]: 5.36 ± 0.85 µM
IC50 [3]: 7.55 ± 1.2 µM
viability of HCT-116 cells (HCT-116 cells [4]): significantly reduced
cell cycle distribution (HCT-116 cells [5]): no significant effect
apoptosis induction (HCT-116 cells [6]): significantly induced apoptosis

CCCCCCCCCCCCCCC(C(=O)O)C(O)(CC(=O)OC)C(=O)O (centres unmarked) [Caperatic acid]
NEDD9 expression [1, 10]: downregulated
Axin2 expression [1, 9]: downregulated

Cc1cc(OC(=O)c2c(C)cc(O)cc2O)cc(O)c1C(=O)O [Lecanoric acid]
c-MYC expression [1, 9]: upregulated
viability of HCT-116 cells (HCT-116 cells [4]): significantly reduced
cell cycle distribution (HCT-116 cells [5]): cell cycle arrest in the G2 phase
cell cycle distribution (NIH3T3 cells): cell cycle arrest in the G2 phase
cell cycle distribution (HeLa cells): cell cycle arrest in the G2 phase
apoptosis induction (HCT-116 cells [6]): did not induce apoptosis

Cc1cc(O)c(C=O)c2c1C(=O)Oc1c(CO)c(O)c3c(c1O2)C(O)OC3=O (centres unmarked) [Salazinic acid]
IC50 (A-172 cells): > 100 µM
IC50 (T98G cells [7]): > 100 µM

COc1cc(C)c(C(=O)Oc2cc(C)c(C(=O)O)c(O)c2C)c(O)c1C(=O)O [Squamatic acid]
oxidative stress (superoxide) induction (T98G cells [8]): induce oxidative stress
CCND1 expression ([1]; co-treatment with TMZ 30 µM): upregulation
BIRC5 expression [1, 10]: diminished
Axin2 expression [1, 9]: downregulated
